Experimental data as given in PubChem BioAssay (NCI).
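The compound was tested at five concentrations on cells cultured in 96-well plates, with a 48-hour exposure period. GI50: concentration for 50% inhibition of growth. TGI: total growth inhibition.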

Columns and labels:
Test in all cases: NCI anticancer screen, dose series, 48 h
NCI-H23 lung = tested on: NCI-H23 lung
NCI-H460 lung = tested on: NCI-H460 lung
NCI-H522 lung = tested on: NCI-H522 lung
NCI/ADR-RES ovarian = tested on: NCI/ADR-RES ovarian
OVCAR-3 ovarian = tested on: OVCAR-3 ovarian
OVCAR-4 ovarian = tested on: OVCAR-4 ovarian
OVCAR-5 ovarian = tested on: OVCAR-5 ovarian
OVCAR-8 ovarian = tested on: OVCAR-8 ovarian
PC-3 prostate = tested on: PC-3 prostate
RPMI-8226 leukemia = tested on: RPMI-8226 leukemia
RXF 393 renal = tested on: RXF 393 renal
SF-268 CNS = tested on: SF-268 CNS
SF-295 CNS = tested on: SF-295 CNS
SF-539 CNS = tested on: SF-539 CNS
SK-MEL-2 melanoma = tested on: SK-MEL-2 melanoma
SK-MEL-28 melanoma = tested on: SK-MEL-28 melanoma
SK-MEL-5 melanoma = tested on: SK-MEL-5 melanoma
SK-OV-3 ovarian = tested on: SK-OV-3 ovarian
SN12C renal = tested on: SN12C renal
SNB-19 CNS = tested on: SNB-19 CNS
SNB-75 CNS = tested on: SNB-75 CNS
SR leukemia = tested on: SR leukemia
SW-620 colon = tested on: SW-620 colon
T-47D breast = tested on: T-47D breast
TK-10 renal = tested on: TK-10 renal
U251 CNS = tested on: U251 CNS
UACC-257 melanoma = tested on: UACC-257 melanoma
UACC-62 melanoma = tested on: UACC-62 melanoma
UO-31 renal = tested on: UO-31 renal

## CCN(Cc1cccnc1)c1ccc(CO)c(Cl)c1
NCI-H23 lung
  GI50: 45 µM
  TGI: > 100 µM
NCI-H460 lung
  GI50: 0.555 µM
  TGI: 8.66 µM
NCI-H522 lung
  GI50: > 100 µM
  TGI: > 100 µM
NCI/ADR-RES ovarian
  GI50: 36.5 µM
  TGI: > 100 µM
OVCAR-3 ovarian
  GI50: 1.13 µM
  TGI: 5.36 µM
OVCAR-4 ovarian
  GI50: 0.433 µM
  TGI: 4.63 µM
OVCAR-5 ovarian
  GI50: 0.244 µM
  TGI: 0.915 µM
OVCAR-8 ovarian
  GI50: 34.9 µM
  TGI: > 100 µM
PC-3 prostate
  GI50: 58.4 µM
  TGI: > 100 µM
RPMI-8226 leukemia
  GI50: 11.1 µM
  TGI: > 100 µM
RXF 393 renal
  TGI: > 100 µM
SF-268 CNS
  GI50: > 100 µM
  TGI: > 100 µM
SF-295 CNS
  GI50: 1.06 µM
  TGI: > 100 µM
SF-539 CNS
  GI50: > 100 µM
  TGI: > 100 µM
SK-MEL-2 melanoma
  GI50: > 37 µM
  TGI: > 100 µM
SK-MEL-28 melanoma
  GI50: > 100 µM
  TGI: > 100 µM
SK-MEL-5 melanoma
  GI50: 15.1 µM
  TGI: > 60.2 µM
SK-OV-3 ovarian
  GI50: 23.5 µM
  TGI: > 100 µM
SN12C renal
  GI50: > 87.5 µM
  TGI: > 100 µM
SNB-19 CNS
  GI50: > 100 µM
  TGI: > 100 µM
SNB-75 CNS
  GI50: 65.9 µM
  TGI: > 100 µM
SR leukemia
  GI50: > 100 µM
  TGI: > 100 µM
SW-620 colon
  GI50: 3.66 µM
  TGI: > 100 µM
T-47D breast
  GI50: 0.269 µM
  TGI: 1.54 µM
TK-10 renal
  GI50: 0.12 µM
  TGI: 0.333 µM
U251 CNS
  GI50: 3.75 µM
  TGI: > 100 µM
UACC-257 melanoma
  GI50: 0.195 µM
  TGI: 0.621 µM
UACC-62 melanoma
  GI50: 0.289 µM
  TGI: 2.05 µM
UO-31 renal
  GI50: 20 µM
  TGI: > 100 µM
